Assay results taken from patent US20230312473A1, “PROCESS FOR THE PREPARATION OF BIHETEROARYL COMPOUNDS AND CRYSTAL FORMS THEREOF” (Genentech, Inc., priority 2020, published 2023).

Key:
[1] = Crystallization study: crystalline form by XRPD; type: physicochemical
Experimental: In Example 14, X-ray powder diffraction (“XRPD”), a sample of compound 1 was prepared in an open quartz glass capillary with a diameter of 0.9 mm (and was not further processed, such as by grinding). A Stoe high-low temperature attachment (working range −50 to 300) with a NiCr/Ni thermocouple for temperature measurement controlled the respective temperature conditions. The measurements were carried out with a rotating capillary and the following parameters. STOE STADI diffractometer; MYTHEN 1K detector; CuKα, 1.5406 Å radiation; Ge monochromator; 40 kV, 40 mA; moving scan; 1800 seconds per step; 2θ=3-42 degrees; 5° C./min ramp rate; and 5° C. temperature step.
Compound 1 was prepared from crude compound 1 according to the following procedure. Crude compound 1 (46 kg) was dissolved in 1080 kg of isopropyl acetate at 88.6° C. After cooling to 71° C., the solution was passed through a pre-washed and pre-heated charcoal filter. The charcoal filter was rinsed with 400 kg of hot isopropyl acetate. Under reduced pressure, the volume of the combined filtrates was concentrated to a total of 760 to 780 L. The resulting suspension was heated to 88° C. Isopropyl acetate was then added in portions (85 kg in total) to achieve complete dissolution at 88° C. The solution was cooled to 69° C. leading to a suspension which was then cooled to 0° C. within 190 minutes, and stirred at this temperature for 900 minutes. The product was isolated by filtration and rinsed with portions of cold isopropyl acetate (400 kg in total). After drying at […]/10 mbar for about 40 hours, 38.5 kg (approx. 84% of theoretical yield) of crystallized compound 1 was obtained.
Crystalline compound 1 was evaluated. Crystallization study procedures were done based on the solubility of compound 1 in the solvent under evaluation as follows.
The results are presented below in Table 10 where: * refers to compound 1 prepared as described above; and ** refers to compound 1 prepared as described above and further incubated at 100% relative humidity at 22° C. for 17 days.

[2] = Mechanical stress evaluation: dynamic vapor sorption (DVS); type: physicochemical
Experimental: Compound 1, produced generally according to the method of Example 5, was evaluated for changes induced mechanical stress conditions, where crystallinity was evaluated by XRPD and where thermoanalytic characteristics were measured by differential scanning calorimetry (“DSC”), thermogravimetric analysis (“TGA”) and dynamic vapor sorption (“DVS”).
About 500 mg of compound 1 was dry grinded for about 5 minutes at ambient conditions with a mortar and pestle in order to simulate shear stresses encountered during a dry granulation. […] Furthermore, thermoanalytic data as measured by DSC, TGA, and DVS was only marginally different from compound 1 starting material (see Table 12 below).
The effect of pressure on compound 1 was performed to investigate whether phase transformation could occur during tableting. The conditions were 1.8 T/5 mm compact, 900 MPa, about 30 mg of compound 1, and a dwell time of about 6 seconds). The tablets were analyzed without further treatment and after gentle crushing of the tablets with a pestle. […] FIG. 2 pattern (b) is the XRPD pattern for crushed tablets. FIG. 2 pattern (c) is the XRPD pattern for tablets that were not crushed.
To simulate wet milling, wet manual grinding experiments were done. About 500 mg of compound 1 and about 0.5 mL water were kneaded for about 5 minutes with a mortar and pestle. About 100 mg of the wet material was analyzed by XRPD. The remainder of the material was dried overnight in an oven at 50° C. and ambient pressure. The dried material was analyzed by […], DSC, TGA, and DVS.

Compound: Nc1ncc(-c2cc(N3C[C@@H]4C[C@H]3CO4)nc(N3CCC(F)(F)C3)n2)cc1OC(F)F [Compound 1, 5-(6-((1S,4S)-2-oxa-5-azabicyclo[2.2.1]heptan-5-yl)-2-(3,3-difluoropyrrolidin-1-yl)pyrimidin-4-yl)-3-(difluoromethoxy)pyridin-2-amine]
- Crystalline Form ([1]; * compound 1 as prepared (crystallized from isopropyl acetate)): Form A
- Crystalline Form ([1]; ** as prepared and further incubated at 100% relative humidity at 22° C. for 17 days): Form A
- Crystalline Form ([1]; crystallization study solvent: 2-methyl THF): Form A
- Crystalline Form ([1]; crystallization study solvent: 5% water in ethanol): Form A
- Crystalline Form ([1]; crystallization study solvent: 5% water in isopropanol): Form A
- Crystalline Form ([1]; crystallization study solvent: 5% water in methanol): Form A
- Crystalline Form ([1]; crystallization study solvent: 5% water in propanol): Form A
- Crystalline Form ([1]; crystallization study solvent: 15% water in THF): Form A
- Crystalline Form ([1]; crystallization study solvent: 15% water in acetone): Form A
- Crystalline Form ([1]; crystallization study solvent: 15% water in ethanol): Form A
- Crystalline Form ([1]; crystallization study solvent: 15% water in isopropanol): Form A
- Crystalline Form ([1]; crystallization study solvent: 15% water in methanol): Form A
- Crystalline Form ([1]; crystallization study solvent: 15% water in propanol): Form A
- Crystalline Form ([1]; crystallization study solvent: 20% water in acetonitrile): Form A
- Crystalline Form ([1]; crystallization study solvent: 50% water in acetonitrile): Form A
- Crystalline Form ([1]; crystallization study solvent: 50% water in ethanol): Form A
- Crystalline Form ([1]; crystallization study solvent: 50% water in isopropanol): Form A
- Crystalline Form ([1]; crystallization study solvent: 50% water in methanol): Form A
- Crystalline Form ([1]; crystallization study solvent: 50% water in propanol): Form A
- Crystalline Form ([1]; crystallization study solvent: 80% water in acetonitrile): Form A
- Crystalline Form ([1]; crystallization study solvent: Acetic acid): Form A
- Crystalline Form ([1]; crystallization study solvent: Acetone): Form A
- Crystalline Form ([1]; crystallization study solvent: Acetonitrile): Form A
- Crystalline Form ([1]; crystallization study solvent: Butanol): Form A
- Crystalline Form ([1]; crystallization study solvent: Chloroform): Form A
- Crystalline Form ([1]; crystallization study solvent: DMA): Form A
- Crystalline Form ([1]; crystallization study solvent: DMF): Form A
- Crystalline Form ([1]; crystallization study solvent: DMSO): Form A
- Crystalline Form ([1]; crystallization study solvent: Dichloromethane): Form A
- Crystalline Form ([1]; crystallization study solvent: Diisopropylamine): Form A
- Crystalline Form ([1]; crystallization study solvent: Dimethyl carbonate): Form A
- Crystalline Form ([1]; crystallization study solvent: Dioxane): Form A
- Crystalline Form ([1]; crystallization study solvent: Ethanol): Form A
- Crystalline Form ([1]; crystallization study solvent: Ethyl acetate): Form A
- Crystalline Form ([1]; crystallization study solvent: Isopropanol): Form A
- Crystalline Form ([1]; crystallization study solvent: Isopropyl acetate): Form A
- Crystalline Form ([1]; crystallization study solvent: MEK): Form A
- Crystalline Form ([1]; crystallization study solvent: MIBK): Form A
- Crystalline Form ([1]; crystallization study solvent: MTBE): Form A
- Crystalline Form ([1]; crystallization study solvent: Methanol): Form A
- Crystalline Form ([1]; crystallization study solvent: NMP): Form A
- Crystalline Form ([1]; crystallization study solvent: Nitromethane): Form A
- Crystalline Form ([1]; crystallization study solvent: Propanol): Form A
- Crystalline Form ([1]; crystallization study solvent: THF): Form A
- Crystalline Form ([1]; crystallization study solvent: Toluene): Form A
- Crystalline Form ([1]; crystallization study solvent: Water): Form A
- Crystalline Form ([1]; crystallization study solvent: i-Butanol): Form A
- Crystalline Form ([1]; crystallization study solvent: n-Heptane): Form A
- Crystalline Form ([1]; crystallization study solvent: s-butanol): Form A
- DVS Δm (0-90% RH) ([2]; after Dry Granulation (dry grinding about 5 minutes, mortar and pestle)): 0.1% m/m
- DVS Δm (0-90% RH) ([2]; after Tableting (900 MPa)): <0.1% m/m
- DVS Δm (0-90% RH) ([2]; after Tableting (crushing)): 0.1% m/m
- DVS Δm (0-90% RH) ([2]; after Wet Granulation (wet manual grinding with water, dried at 50° C.)): <0.1% m/m
- hygroscopicity by DVS ([2]; compacted (tableted) samples versus starting material): did not show a significant increase of hygroscopicity
- DVS Δm (0-90% RH) ([2]; untreated compound 1 starting material): <0.1% m/m
